COc1c(C(C)(C)C)cc([N+](=O)[O-])c(C)c1[N+](=O)[O-]
solubility (mole fraction)
Conditions | 278.15 K | 283.15 K | 288.15 K | 293.15 K | 298.15 K | 303.15 K | 308.15 K | 313.15 K | 318.15 K
in DMAc | 0.121 | 0.14 | 0.162 | 0.189 | 0.221 | 0.258 | 0.3 | 0.347 | 0.4
in DMF | 0.0875 | 0.107 | 0.127 | 0.154 | 0.183 | 0.221 | 0.263 | 0.31 | 0.372
in THF | 0.157 | 0.177 | 0.203 | 0.231 | 0.264 | 0.302 | 0.342 | 0.391 | 0.446
in acetonitrile | 0.0355 | 0.0456 | 0.0608 | 0.0819 | 0.111 | 0.146 | 0.189 | 0.25 | 0.33
in ethanol | 0.00359 | 0.0046 | 0.00594 | 0.00791 | 0.00992 | 0.0131 | 0.0164 | 0.0215 | 0.0276
in methanol | 0.00266 | 0.00351 | 0.00447 | 0.00561 | 0.00719 | 0.00897 | 0.0112 | 0.0144 | 0.018
in n-butanol | 0.00491 | 0.00673 | 0.0088 | 0.0111 | 0.0143 | 0.0192 | 0.0241 | 0.0308 | 0.0405
in n-propanol | 0.00367 | 0.00463 | 0.00591 | 0.00789 | 0.0105 | 0.0137 | 0.0182 | 0.024 | 0.0311
